Source: patent US12077503B2, “Substituted cyclic amides and their use as herbicides” (FMC CORPORATION, priority 2015, dated 2024)

How the values were obtained:
Format in all cases: in vivo
Kochia (Kochia scoparia) [1] = experiment: Test A preemergence; conditions: Bassia scoparia, pre-emergence, 240 h; for pest or weed control at 125 g/ha: 125 g ai/ha, Preemergence, visual injury rating after approximately 10 d, read-out: Kochia plant response rating (0 to 100 scale, 0 is no effect, 100 is complete control); for pest or weed control at 500 g/ha: 500 g ai/ha, preemergence, visual injury rating about 10 d after treatment, 0 to 100 scale (0 no effect, 100 complete control), read-out: Kochia plant response rating
Procedure, shortened: (§1)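 Preemergence directed soil spray on seeded pots, or postemergence application to plants 2–10 cm, one- to two-leaf. Solvent mixture non-phytotoxic, with surfactant. Scored ~10 d later, visually, 0–100 vs untreated.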

[2] = tested on: barnyardgrass (Echinochloa crus-galli); experiment: Test A preemergence; conditions: Echinochloa crus-galli, pre-emergence, 240 h; for pest or weed control at 125 g/ha: 125 g ai/ha, Preemergence, visual injury rating after approximately 10 d, read-out: Barnyardgrass plant response rating (0 to 100 scale, 0 is no effect, 100 is complete control); for pest or weed control at 500 g/ha: 500 g ai/ha, preemergence, visual injury rating about 10 d after treatment, 0 to 100 scale (0 no effect, 100 complete control), read-out: Barnyardgrass plant response rating
Procedure, shortened: as §1

[3] = tested on: giant foxtail (Setaria faberii); experiment: Test A preemergence; conditions: Setaria faberi, pre-emergence, 240 h; for pest or weed control at 125 g/ha: 125 g ai/ha, Preemergence, visual injury rating after approximately 10 d, read-out: Foxtail, Giant plant response rating (0 to 100 scale, 0 is no effect, 100 is complete control); for pest or weed control at 500 g/ha: 500 g ai/ha, preemergence, visual injury rating about 10 d after treatment, 0 to 100 scale (0 no effect, 100 complete control), read-out: Foxtail, Giant plant response rating
Procedure, shortened: as §1

[4] = tested on: pigweed (Amaranthus retroflexus); experiment: Test A preemergence; conditions: Amaranthus retroflexus, pre-emergence, 240 h; for pest or weed control at 125 g/ha: 125 g ai/ha, Preemergence, visual injury rating after approximately 10 d, read-out: Pigweed plant response rating (0 to 100 scale, 0 is no effect, 100 is complete control); for pest or weed control at 500 g/ha: 500 g ai/ha, preemergence, visual injury rating about 10 d after treatment, 0 to 100 scale (0 no effect, 100 complete control), read-out: Pigweed plant response rating
[5] = tested on: ragweed (common ragweed, Ambrosia elatior); experiment: Test A preemergence; conditions: Ambrosia artemisiifolia, pre-emergence, 240 h; for pest or weed control at 500 g/ha: 500 g ai/ha, preemergence, visual injury rating about 10 d after treatment, 0 to 100 scale (0 no effect, 100 complete control), read-out: Ragweed plant response rating; for pest or weed control at 125 g/ha: 125 g ai/ha, Preemergence, visual injury rating after approximately 10 d, read-out: Ragweed plant response rating (0 to 100 scale, 0 is no effect, 100 is complete control)
Procedure, shortened: as §1

[6] = tested on: ryegrass, Italian (Italian ryegrass, Lolium multiflorum); experiment: Test A preemergence; conditions: Lolium multiflorum, pre-emergence, 240 h; for pest or weed control at 125 g/ha: 125 g ai/ha, Preemergence, visual injury rating after approximately 10 d, read-out: Ryegrass, Italian plant response rating (0 to 100 scale, 0 is no effect, 100 is complete control); for pest or weed control at 500 g/ha: 500 g ai/ha, preemergence, visual injury rating about 10 d after treatment, 0 to 100 scale (0 no effect, 100 complete control), read-out: Ryegrass, Italian plant response rating
Procedure, shortened: as §1

[7] = tested on: Galium (catchweed bedstraw, Galium aparine); experiment: Test A postemergence; conditions: Galium, post-emergence, 240 h, 125 g ai/ha, Postemergence; visual injury after approximately 10 d; 0 to 100 scale where 0 is no effect and 100 is complete control; read-out: Plant response rating, Galium
Procedure, shortened: as §1

Kochia (Kochia scoparia) [8] = experiment: Test A postemergence; conditions: Bassia scoparia, post-emergence, 240 h, 125 g ai/ha, Postemergence; visual injury after approximately 10 d; 0 to 100 scale where 0 is no effect and 100 is complete control; read-out: Plant response rating, Kochia
Procedure, shortened: as §1

[9] = tested on: blackgrass (Alopecurus myosuroides); experiment: Test A postemergence; conditions: Alopecurus myosuroides, post-emergence, 240 h, 125 g ai/ha, Postemergence; visual injury after approximately 10 d; 0 to 100 scale where 0 is no effect and 100 is complete control; read-out: Plant response rating, Blackgrass
Procedure, shortened: as §1

corn (Zea mays) = experiment: Test A postemergence; conditions: Zea mays, post-emergence, 240 h, 125 g ai/ha, Postemergence; visual injury after approximately 10 d; 0 to 100 scale where 0 is no effect and 100 is complete control
Procedure, shortened: as §1

[10] = tested on: giant foxtail (Setaria faberii); experiment: Test A postemergence; conditions: Setaria faberi, post-emergence, 240 h, 125 g ai/ha, Postemergence; visual injury after approximately 10 d; 0 to 100 scale where 0 is no effect and 100 is complete control; read-out: Plant response rating, Foxtail, Giant
Procedure, shortened: as §1

[11] = tested on: pigweed (Amaranthus retroflexus); experiment: Test A postemergence; conditions: Amaranthus retroflexus, post-emergence, 240 h, 125 g ai/ha, Postemergence; visual injury after approximately 10 d; 0 to 100 scale where 0 is no effect and 100 is complete control; read-out: Plant response rating, Pigweed
Procedure, shortened: as §1

[12] = tested on: ragweed (common ragweed, Ambrosia elatior); experiment: Test A postemergence; conditions: Ambrosia artemisiifolia, post-emergence, 240 h, 125 g ai/ha, Postemergence; visual injury after approximately 10 d; 0 to 100 scale where 0 is no effect and 100 is complete control; read-out: Plant response rating, Ragweed
Procedure, shortened: as §1

[13] = tested on: ryegrass, Italian (Italian ryegrass, Lolium multiflorum); experiment: Test A postemergence; conditions: Lolium multiflorum, post-emergence, 240 h, 125 g ai/ha, Postemergence; visual injury after approximately 10 d; 0 to 100 scale where 0 is no effect and 100 is complete control; read-out: Plant response rating, Ryegrass, Italian
Procedure, shortened: as §1

[14] = tested on: wheat (Triticum aestivum); experiment: Test A postemergence; conditions: Triticum aestivum, post-emergence, 240 h, 125 g ai/ha, Postemergence; visual injury after approximately 10 d; 0 to 100 scale where 0 is no effect and 100 is complete control; read-out: Plant response rating, Wheat
Procedure, shortened: as §1

[15] = tested on: barnyardgrass (Echinochloa crus-galli); experiment: Test B flooded paddy test; conditions: Echinochloa crus-galli, Flood, 250 g ai/ha; scale of 0 to 100 where 0 is no effect and 100 is complete control; read-out: Barnyardgrass plant response rating
Procedure, shortened: (§2)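 Flooding to 3 cm over soil accompanied treatment, which consisted of adding compound to the standing water around 2-leaf plants; depth was then maintained. Visual assessment versus controls followed at 13 to 15 d (scale 0–100, 0 meaning no effect).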

[16] = tested on: ducksalad (Heteranthera limosa); experiment: Test B flooded paddy test; conditions: Heteranthera limosa, Flood, 250 g ai/ha; scale of 0 to 100 where 0 is no effect and 100 is complete control; read-out: Ducksalad plant response rating
Procedure, shortened: as §2

rice (Oryra sativa) = experiment: Test B flooded paddy test; conditions: Oryza sativa, Flood, 250 g ai/ha; scale of 0 to 100 where 0 is no effect and 100 is complete control; read-out: Rice plant response rating
Procedure, shortened: as §2

[17] = tested on: sedge, umbrella (small-flower umbrella sedge, Cyperus difformis); experiment: Test B flooded paddy test; conditions: Cyperus difformis, Flood, 250 g ai/ha; scale of 0 to 100 where 0 is no effect and 100 is complete control; read-out: Sedge, Umbrella plant response rating
Procedure, shortened: as §2

SMILES	pest or weed control at 125 g/ha (Kochia (Kochia scoparia) [1]) [%]	pest or weed control at 500 g/ha (Kochia (Kochia scoparia) [1]) [%]	pest or weed control at 125 g/ha [2] [%]	pest or weed control at 500 g/ha [2] [%]	pest or weed control at 125 g/ha [3] [%]	pest or weed control at 500 g/ha [3] [%]	pest or weed control at 125 g/ha [4] [%]	pest or weed control at 500 g/ha [4] [%]	pest or weed control at 500 g/ha [5] [%]	pest or weed control at 125 g/ha [6] [%]	pest or weed control at 500 g/ha [6] [%]	pest or weed control at 125 g/ha [7] [%]	pest or weed control at 125 g/ha (Kochia (Kochia scoparia) [8]) [%]	pest or weed control at 125 g/ha [9] [%]	Corn plant response rating (crop injury, 0 = no effect, 100 = complete kill) at 125 g/ha (corn (Zea mays)) [%]	pest or weed control at 125 g/ha [10] [%]	pest or weed control at 125 g/ha [11] [%]	pest or weed control at 125 g/ha [12] [%]	pest or weed control at 125 g/ha [13] [%]	plant injury at 125 g/ha [14] [%]	further results
CN1C[C@H](c2cc(F)cc(Cl)c2)[C@@H](C(=O)Nc2ccccc2F)C1=O [Compound 976]	70	90	90	100	90	90	0	50	90	50	80	0	30	40	60	90	0	0	20	40	pest or weed control at 250 g/ha [15]: 65%; pest or weed control at 250 g/ha [16]: 95%; pest or weed control at 250 g/ha (rice (Oryra sativa)): 20%; pest or weed control at 250 g/ha [17]: 0%
CSc1ccccc1NC(=O)[C@H]1C(=O)N(C)C[C@@H]1c1ccc(C)c(F)c1 [Compound 983]	90	90	90	100	100	100	0	40	100	30	60	30	50	30	20	90	0	0	20	30	pest or weed control at 125 g/ha [5]: 70%; pest or weed control at 250 g/ha [15]: 30%; pest or weed control at 250 g/ha [16]: 100%; pest or weed control at 250 g/ha (rice (Oryra sativa)): 0%; pest or weed control at 250 g/ha [17]: 0%
CN1C[C@H](c2cc(F)cc(Cl)c2)[C@@H](C(=O)Nc2cccc(F)c2F)C1=O [Compound 974]	90	100	90	100	90	90	20	60	90	70	90	50	70	70	70	90	40	20	70	70	pest or weed control at 125 g/ha [5]: 90%; pest or weed control at 250 g/ha [15]: 60%; pest or weed control at 250 g/ha [16]: 100%; pest or weed control at 250 g/ha (rice (Oryra sativa)): 15%; pest or weed control at 250 g/ha [17]: 0%
COc1cc(OC)cc([C@H]2CN(C)C(=O)[C@@H]2C(=O)Nc2ccccc2F)c1 [Compound 980]	0	90	90	100	90	100	0	0	20	20	30	0	0	0	0	90	0	0	0	0	pest or weed control at 125 g/ha [5]: 0%; pest or weed control at 250 g/ha [15]: 60%; pest or weed control at 250 g/ha [16]: 0%; pest or weed control at 250 g/ha (rice (Oryra sativa)): 30%; pest or weed control at 250 g/ha [17]: 0%
